Results reported in US7094799B2, “Polymorphs of bicifadine hydrochloride” (DOV Pharmaceutical, Inc., priority 2002, dated 2006).
Counter-ions that a name gives are not always drawn.

Assays:
Type in all cases: physicochemical
[1] = Stability of the polymorphic form on grinding (Retsch Mixer Mill, XRPD analysis); conditions: Retsch Mixer Mill MM 200, stainless steel ball, 30/s, 5-minute intervals, total of 20 minutes; hydrochloride
Description: The X-ray powder diffraction (XRPD) analyses of polymorphic forms A and B of racemic bicifadine hydrochloride were performed with a Shimadzu XRD-6000 X-ray powder diffractometer using Cu Kα radiation. The bicifadine was loaded onto the machine as a crystalline powder. The instrument was equipped with a fine focus X-ray tube. The tube voltage and amperage were set to 40 kV and 40 mA, respectively. The divergence and scattering slits were set at 1° and the receiving slit was set at 0.15 mm. Diffracted radiation was detected by a NaI scintillation detector. A theta-two theta continuous scan at 3°/min (0.4 sec/0.02° step) from 2.5 to 40°2θ was used. A silicon standard was analyzed to check the instrument alignment. Data were collected and analyzed using XRD-6000 v. 4.1.
Form A bicifadine hydrochloride (207 mg) was charged to a small stainless steel cylinder. A stainless steel ball was added, the cylinder capped, and the unit shaken on a Retsch Mixer Mill (Type MM 200) at 5-minute intervals at a frequency of 30/s for a total of 20 minutes. The milled material was then removed and analyzed by XRPD.
Form B bicifadine hydrochloride (111 mg) was charged to a small stainless steel cylinder. […] The milled material was then removed and analyzed by XRPD.

[2] = Thermodynamic stability of polymorphic forms; conditions: form B compared with form A; hydrochloride
[3] = Solubility in organic solvents; conditions: room temperature; become soluble when heated
Description: However, they become soluble when heated. In accordance with this conversion, the polymorph form A crystals of bicifadine hydrochloride are mixed with an organic solvent, having a boiling point of at least 50° C. to form a slurry. In carrying out this conversion any conventional organic solvent having a boiling point of at least 50° C. can be utilized. The slurry is then heated to a temperature at which said slurry is a clear solution, and this solution is cooled to a temperature of at most about 35° C., preferably between about 0° C. to about 20° C. The cooled solution is maintained at a temperature of at most about 35° C. for a period of time sufficient to allow said polymorph B to form as a pure crystalline form free from the presence of the polymorph form A. If desired, cooling can be carried out with stirring. During cooling the mixture should be monitored to allow sufficient time for crystalline polymorph B to form from the mixture.

| Structure (SMILES) | polymorphic form after grinding (XRPD) [1] | thermodynamic stability of crystal form [2] | solubility in organic solvents [3] |
| --- | --- | --- | --- |
| Cc1ccc(C23CNCC2C3)cc1 (racemic) [Form B bicifadine hydrochloride, (±)-1-(4-methylphenyl)-3-azabicyclo[3.1.0]-hexane hydrochloride] | remained form B | more thermodynamically stable | – |
| Cc1ccc(C23CNCC2C3)cc1 (racemic) [Form A bicifadine hydrochloride, (±)-1-(4-methylphenyl)-3-azabicyclo[3.1.0]-hexane hydrochloride] | partial conversion to form B | not the most thermodynamically stable polymorphic form | poorly soluble |
